No end group written: not given here.
Legend:
[1] = tested on: negative regulator of genetic competence CIpC/mecB; experiment: SOSPA shotgun proteomic analysis of soluble / insoluble fractions; assay type: cell-based, S.aureus and B.cereus; settings: C30 treated vs untreated cells
Text: The aggregation technology is based on the assumption that short amino acid stretches, with a high propensity of aggregation (e.g. assessed by the TANGO score) and that are derived from a target protein, can induce aggregation of that protein. This hypothesis has been confirmed by a shotgun proteomic analysis of the insoluble fraction. If we assume that our aggregator peptides work through specific interaction with its target and causes its aggregation, it is expected that the target enters the insoluble fraction. For this reason we've decided to split the lysate into 2 fractions: insoluble and soluble and compare these with untreated cell fractions. Proteins present in both treated (TC30) and untreated (NT) insoluble fractions were assumed to present a background of non-specific naturally non-soluble proteins. Additionally we've examined soluble fractions of both treated and untreated bacteria and as expected the protein of interest was present only in the untreated fraction. This means that the following criteria for target search were used:
1) potential aggregation targets are proteins obtained from the list of proteins in the Insoluble fraction of C30 treated cells minus proteins in the Insoluble fraction of non-treated cells […]

Candida albicans SC5314 [2] = experiment: Adherence of C. albicans SC5314 to epithelial cell line TR-146; assay type: cell-based; settings: adhesion 1 h
Description: As discussed herein before, C. albicans Als3 also plays a role in adherence and invasion to epithelial and endothelial cells. […] Here we investigated the effect of external application of interferor peptide F9 on C. albicans SC5314 adherence and invasion to epithelial cells. Thereto, Candida cells were incubated together with the human cells (epithelial cell line TR-146) in the presence of peptide F9 during adhesion (1 h) or invasion (3 h). The amount of adhered and internalized cells was determined by counting using epifluorescence.
C. albicans strains were grown in liquid YPD, succinate, pH 6.5 or YNB (4% D-glucose) at 30° C. in a shaking incubator overnight. Candida cells were washed three times with 1× PBS and determined to a final concentration 1×10^5 cells/ml in DMEM containing NaHCO3, D-glucose, Na-pyruvate and stable glutamine without FCS. The TR-146 were grown on 12 mm glass slides and inoculated with Candida cells. Different concentrations of positive peptide F9 (50 μM, 10 μM and 2.5 μM) and negative peptides F9_negat, 13 and 20 (50 μM) were tested on Candida adhesion to epithelial cells. Adhesion assay was allowed for 1 h at 37° C., 5% CO2. After adhesion, the cells were washed three times with 1× PBS to remove non-adherent cells and then fixed with 4% paraformaldehyde for 30 min at room temperature.
After extensive rinsing with 1× PBS, the cells were permeabilized in 0.5% Triton X-100 in water for 5 min, and subsequently stained with calcofluor white (dilution 1:100) for 15 min and further washed with water, three times for 10 min, at 30° C., 180 rpm. Coverslips were mounted inverted on a microscope slide and quantified under epifluorescence using a filter set to detect calcofluor white (filter for DAPI) (Leica DFC350 FX, Mannheim, Germany). The percentage of adhered cells was calculated as an average of attached Candida cells on one hundred areas spread over the entire surface of the coverslip.

Candida albicans SC5314 [3] = experiment: In vivo subcutaneous C. albicans biofilm model in rats (polyurethane catheters, CFU)
Description: In a next step we also investigated a potential inhibitory role of interferor peptide F9 during in vivo C. albicans biofilm development. We used the in vivo subcutaneous C. albicans biofilm model in rats (i.e. in vivo biofilms formed inside polyurethane triple lumen catheter pieces) as further outlined in the materials and methods section. Only one concentration of peptide F9 (i.e. 50 μM) was tested in the experimental conditions. The peptide was administrated ex vivo, during initial attachment of Candida to the substrate (90 min, 37° C.). Afterwards, the catheters were washed and implanted subcutaneously in rats. Biofilms were studied six days post implantation and quantified by CFUs. […]
Polyurethane triple lumen intravenous catheters (2.4 mm diameter) cut into segments of 1 cm (Arrow International Reading, USA) were incubated overnight in FBS at 37° C. […] The skin was disinfected and catheter fragments were removed from under the subcutaneous tissue, washed twice with 1× PBS and quantified or visualized.The effect of peptides promoting the aggregation of Als3p during Candida biofilm development in vivo was characterized, as well. […]
The amount of fungal biofilm biomass formed inside the catheter lumen of in vitro and in vivo explanted catheters was determined by colony forming units (CFU). […] CFUs were counted after two days at 37° C.

Description for Corynebacterium: Bacteria were grown in a shaking incubator at 37° C. and 160rpm in 50 ml BHI , using individual colonies retrieved from a fresh overnight TSA-sheep blood plate. The cultures were grown to a density of approximately 1×10^8cells/ml and then diluted to 5×10^5 cells/ml in CAMHB (Mc Farland 0.5). Each well contained 100p.I (50p.I of peptide containing MHB plus 50 μl inoculum). The final cell density was 1×10^5 to 5×10^5/ml. After addition of the cell suspension, plates were incubated at 37° C. for 18 to 24 hours. The optical density at 590 nm (OD590) of each well was measured after 5 seconds of shaking the plate using Perkin Elmer spectrophotometer (1420 Multilabel Counter Vicotr 3). […] Each well, where no growth was observed, was also plated on TSA-sheep blood agar plates, incubated at 37° C. overnight and visually inspected.
A microbroth dilution method was used with twofold serial dilutions in CAMHB (according to EMEA guidelines) was used for screening of peptide activity, with concentrations ranging from 0.3 μg/mIto 200 μg/ml.

Sequence: RILLGLIRRGSRILLGLIRR [C30]
- distribution of the target protein between soluble and insoluble fraction [1]: shifted from soluble into insoluble fraction upon peptide treatment
- activity against the genus Corynebacterium (Corynebacterium): active against the genus Corynebacterium

Sequence: RKLLFNLGSRNGIVIVATTR [F9]
- decrease of Candida adhesion to epithelial cells compared to the control (Candida albicans SC5314 [2]; 2.5 μM): ~15%
- decrease of Candida adhesion to epithelial cells compared to the control (Candida albicans SC5314 [2]; 10 μM): approximately 20%
- decrease of Candida adhesion to epithelial cells compared to the control (Candida albicans SC5314 [2]; 50 μM): 40%
- mean CFUs ±SD obtained per catheter fragment (Candida albicans SC5314 [3]; 50 μM ex vivo during adhesion (90 min, 37° C.), catheters implanted subcutaneously in rats, six days post implantation, control 3.69 ±0.42): 2.25 ±1.08 login CFU/catheter fragment
- peptide-treated catheters containing less than 2.0 log10 CFU/catheter fragment (Candida albicans SC5314 [3]; four out of 20 catheters, 50 μM, rats, six days): 20%
